Consider four molecules from US20080009418A1, “Selective Inhibitors” (Alchemia LTD., priority 2004, published 2008).

The target of one assay is T1, Mouse urotensin (mUR2) (Mus musculus, UniProt Q8VIH9).
T1 construct: purchased Perkin Elmer Biosignal
T1 sequence (Q8VIH9 1-385): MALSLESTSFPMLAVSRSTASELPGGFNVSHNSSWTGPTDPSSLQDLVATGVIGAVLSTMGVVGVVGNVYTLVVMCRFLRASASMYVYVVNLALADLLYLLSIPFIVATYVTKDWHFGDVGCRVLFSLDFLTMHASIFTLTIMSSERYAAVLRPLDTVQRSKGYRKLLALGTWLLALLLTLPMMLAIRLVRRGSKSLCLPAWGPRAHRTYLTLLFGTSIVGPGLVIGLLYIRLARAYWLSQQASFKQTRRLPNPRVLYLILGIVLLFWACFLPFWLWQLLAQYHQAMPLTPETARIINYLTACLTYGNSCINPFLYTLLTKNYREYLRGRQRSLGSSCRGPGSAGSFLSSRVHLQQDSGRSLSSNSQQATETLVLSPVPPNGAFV
Put plainly: Radioligand binding, mouse urotensin mUR2 membranes, FlashPlate, [125I]-Urotensin II. The note with it: compound at 10 μM; for A11 radioligand binding inhibition: mouse urotensin mUR2 membranes; for A11: inhibition of radioligand binding: [125I]-Urotensin II. In outline:
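Cloned mouse urotensin (mUR2) receptor membranes from Perkin Elmer Biosignal were immobilized in FlashPlate microplates using a proprietary coating. Each well got 19.5 μl buffer, then 0.5 μl of DMSO, reference ligand, or compound. Adding 5 μl of [125I]-Urotensin II, diluted to 5× final concentration in binding buffer, started binding. Plates were sealed with TopSeal-A and incubated 1 hour at room temperature in the dark. Wells were counted for 30 seconds each on a TopCount after a 60-second delay, and percentage inhibition was calculated.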

Another assay has as its target T2, Human opioid (ORL1) (Homo sapiens, UniProt P41146).
T2 construct: purchased Perkin Elmer Biosignal
Put plainly: Radioligand binding, human opioid ORL1 membranes, FlashPlate, [125I]-Nociceptin. The following applies: compound at 10 μM; for A10: inhibition of radioligand binding: [125I]-Nociceptin. Summed up:
(§1)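 Cloned human receptor membranes were coated onto FlashPlate wells and incubated with radioligand and compound (added from a 0.5 mM DMSO daughter plate) for 1 hour at room temperature in the dark. Scintillation counting gave percent inhibition, with DMSO defining total and reference ligand defining non-specific binding.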

In assay [1] the target is T3, Human neuropeptide Y (NPY-Y1) (Homo sapiens, UniProt P25929).
T3 construct: purchased Perkin Elmer Biosignal
T3 sequence (P25929 1-384): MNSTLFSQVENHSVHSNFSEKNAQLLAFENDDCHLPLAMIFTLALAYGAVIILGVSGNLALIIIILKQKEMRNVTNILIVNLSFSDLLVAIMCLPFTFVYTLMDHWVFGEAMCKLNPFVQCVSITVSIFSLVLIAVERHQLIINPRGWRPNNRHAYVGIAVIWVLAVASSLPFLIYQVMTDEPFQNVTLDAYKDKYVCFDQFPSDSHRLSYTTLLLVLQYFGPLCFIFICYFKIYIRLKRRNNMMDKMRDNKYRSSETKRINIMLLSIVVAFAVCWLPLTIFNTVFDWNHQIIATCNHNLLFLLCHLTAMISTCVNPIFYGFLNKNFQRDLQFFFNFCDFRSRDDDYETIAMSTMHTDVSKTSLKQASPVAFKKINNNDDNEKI
Put plainly: Radioligand binding, human neuropeptide Y NPY-Y1 membranes, FlashPlate, [125I]-PYY. The following applies: compound at 10 μM; for A9: inhibition of radioligand binding: [125I]-PYY. In outline: as §1

The target of another assay is T4, Human Melanocortin (MC4) (Homo sapiens, UniProt P32245).
T4 construct: purchased Perkin Elmer Biosignal
T4 sequence (P32245 whole entry): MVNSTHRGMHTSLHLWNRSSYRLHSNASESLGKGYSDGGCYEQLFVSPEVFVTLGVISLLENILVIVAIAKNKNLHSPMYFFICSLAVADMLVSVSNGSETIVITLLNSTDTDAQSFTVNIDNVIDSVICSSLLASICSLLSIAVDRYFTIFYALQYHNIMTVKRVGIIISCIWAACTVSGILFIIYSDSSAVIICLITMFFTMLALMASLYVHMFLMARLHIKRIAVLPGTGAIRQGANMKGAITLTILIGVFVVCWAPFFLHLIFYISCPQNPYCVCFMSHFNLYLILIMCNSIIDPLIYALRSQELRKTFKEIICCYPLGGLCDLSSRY
Put plainly: Radioligand binding, human melanocortin MC4 membranes, FlashPlate, [125I]-NDP-αMSH. The following applies: compound at 10 μM; for A4 radioligand binding inhibition: human melanocortin MC4 membranes; for A4: inhibition of radioligand binding: [125I]-NDP-αMSH. Summed up: as §1

The next assay deals with T5, Human κ-Opioid (KOP) (Homo sapiens, UniProt P41145).
T5 construct: purchased Perkin Elmer Biosignal
T5 sequence (P41145 whole entry): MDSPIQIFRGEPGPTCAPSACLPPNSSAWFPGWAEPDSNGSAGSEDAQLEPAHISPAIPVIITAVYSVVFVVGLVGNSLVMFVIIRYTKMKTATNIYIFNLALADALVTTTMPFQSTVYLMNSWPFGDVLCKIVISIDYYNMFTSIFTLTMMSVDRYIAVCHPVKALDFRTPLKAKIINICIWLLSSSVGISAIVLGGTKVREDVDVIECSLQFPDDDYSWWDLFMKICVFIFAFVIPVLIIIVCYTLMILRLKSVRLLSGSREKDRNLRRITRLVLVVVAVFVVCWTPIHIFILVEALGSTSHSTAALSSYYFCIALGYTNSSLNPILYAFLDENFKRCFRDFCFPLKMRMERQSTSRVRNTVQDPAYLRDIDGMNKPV
Put plainly: Radioligand binding, human κ-opioid (KOP) membranes, filtration, [3H]-Diprenorphine. The following applies: compound at 10 μM; for A2 radioligand binding inhibition: human κ-opioid (KOP) membranes; for A2: inhibition of radioligand binding: [3H]-Diprenorphine. In outline:
(§2)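 Filtration binding on cloned human receptor membranes (1 Unit/well), [125I]-Substance P for NK1 and [3H]-Diprenorphine for KOP, 1 h at room temperature. Filters PEI-presoaked, washed with cold 50 mM Tris-HCl pH 7.4, counted by scintillation; percent inhibition calculated, reference ligand defining non-specific binding.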

Another assay has as its target T6, Human melanocortin (MC5) (Homo sapiens, UniProt P33032).
T6 construct: purchased Perkin Elmer Biosignal
Put plainly: Radioligand binding, human melanocortin MC5 membranes, FlashPlate, [125I]-NDP-αMSH. The following applies: compound at 10 μM; for A5 radioligand binding inhibition: human melanocortin MC5 membranes; for A5: inhibition of radioligand binding: [125I]-NDP-αMSH. In outline:
as §1

For a further assay, the target named is T7, Human μ-opioid (MOP) (Homo sapiens, UniProt P35372).
T7 construct: purchased Perkin Elmer Biosignal
T7 sequence (P35372 whole entry): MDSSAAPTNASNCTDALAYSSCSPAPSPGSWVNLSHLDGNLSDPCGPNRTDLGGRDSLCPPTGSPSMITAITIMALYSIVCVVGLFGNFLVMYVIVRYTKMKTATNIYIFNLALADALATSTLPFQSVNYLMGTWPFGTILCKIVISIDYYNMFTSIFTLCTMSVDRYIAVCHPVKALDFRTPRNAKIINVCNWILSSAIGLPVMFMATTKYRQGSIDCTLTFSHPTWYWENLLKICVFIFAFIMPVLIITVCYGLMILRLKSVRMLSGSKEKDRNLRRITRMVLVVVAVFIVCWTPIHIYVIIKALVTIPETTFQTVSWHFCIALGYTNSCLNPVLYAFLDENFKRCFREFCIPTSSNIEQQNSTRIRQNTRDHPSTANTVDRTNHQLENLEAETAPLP
The experiment in a line: Radioligand binding, human μ-opioid (MOP) membranes, FlashPlate, [3H]-Naloxone. The note with it: compound at 10 μM; for A7 radioligand binding inhibition: human μ-opioid (MOP) membranes; for A7: inhibition of radioligand binding: [3H]-Naloxone. Summed up:
as §1

A further assay deals with T8, Human Melanocortin (MC3) (Homo sapiens, UniProt P41968).
T8 construct: purchased Perkin Elmer Biosignal
T8 sequence (P41968 whole entry): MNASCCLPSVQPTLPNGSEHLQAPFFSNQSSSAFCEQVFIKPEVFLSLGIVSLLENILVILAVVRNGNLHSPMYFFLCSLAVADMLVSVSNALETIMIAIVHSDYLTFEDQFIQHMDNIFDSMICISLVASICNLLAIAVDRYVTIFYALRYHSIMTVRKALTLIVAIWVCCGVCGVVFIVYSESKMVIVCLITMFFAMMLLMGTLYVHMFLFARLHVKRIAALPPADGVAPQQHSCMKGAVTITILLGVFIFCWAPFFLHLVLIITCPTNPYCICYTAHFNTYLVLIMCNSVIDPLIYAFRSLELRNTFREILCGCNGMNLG
The experiment in a line: Radioligand binding, human melanocortin MC3 membranes, FlashPlate, [125I]-NDP-αMSH. The note with it: compound at 10 μM; for A3 radioligand binding inhibition: human melanocortin MC3 membranes; for A3: inhibition of radioligand binding: [125I]-NDP-αMSH. Summed up:
as §1

The target of a further assay is T9, Human neurokinin (NK1) (Homo sapiens, UniProt P25103).
T9 construct: purchased Perkin Elmer Biosignal
T9 sequence (P25103 whole entry): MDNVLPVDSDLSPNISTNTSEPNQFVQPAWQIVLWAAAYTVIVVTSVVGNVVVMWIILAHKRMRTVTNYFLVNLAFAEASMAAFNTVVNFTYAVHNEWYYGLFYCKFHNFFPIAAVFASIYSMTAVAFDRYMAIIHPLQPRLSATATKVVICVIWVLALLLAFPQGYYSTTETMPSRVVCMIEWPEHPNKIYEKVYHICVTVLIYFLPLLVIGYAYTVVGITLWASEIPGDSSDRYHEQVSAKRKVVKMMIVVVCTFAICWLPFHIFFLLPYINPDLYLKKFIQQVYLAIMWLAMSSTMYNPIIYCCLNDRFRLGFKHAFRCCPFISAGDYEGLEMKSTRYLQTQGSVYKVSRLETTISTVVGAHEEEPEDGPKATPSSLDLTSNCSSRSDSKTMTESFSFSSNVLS
Put plainly: Radioligand binding, human neurokinin NK1 membranes, filtration, [125I]-Substance P. The following applies: compound at 10 μM; for A8 radioligand binding inhibition: human neurokinin NK1 membranes; for A8: inhibition of radioligand binding: [125I]-Substance P. In outline: as §2

The next assay deals with T10, Human δ-opioid (DOP) (Homo sapiens, UniProt P41143).
T10 construct: purchased Perkin Elmer Biosignal
T10 sequence (P41143 whole entry): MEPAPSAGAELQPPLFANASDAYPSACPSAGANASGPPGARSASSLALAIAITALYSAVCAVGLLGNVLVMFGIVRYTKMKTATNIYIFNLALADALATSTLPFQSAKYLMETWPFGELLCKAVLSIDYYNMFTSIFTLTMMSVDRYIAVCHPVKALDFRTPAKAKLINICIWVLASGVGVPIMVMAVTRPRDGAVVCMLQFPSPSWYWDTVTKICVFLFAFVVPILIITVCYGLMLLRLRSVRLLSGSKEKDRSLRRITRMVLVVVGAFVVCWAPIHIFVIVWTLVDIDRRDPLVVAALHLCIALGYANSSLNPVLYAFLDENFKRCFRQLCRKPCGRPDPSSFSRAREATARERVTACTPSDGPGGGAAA
Put plainly: Radioligand binding, human δ-opioid (DOP) membranes, FlashPlate, [3H]-Bremazocine. The note with it: compound at 10 μM; for A1 radioligand binding inhibition: human δ-opioid (DOP) membranes; for A1: inhibition of radioligand binding: [3H]-Bremazocine. In outline: as §1

In assay [2] the target is T11, Human melanin-concentrating hormone (MCH1) (Homo sapiens, UniProt Q99705).
T11 construct: purchased Perkin Elmer Biosignal
T11 sequence (Q99705 whole entry): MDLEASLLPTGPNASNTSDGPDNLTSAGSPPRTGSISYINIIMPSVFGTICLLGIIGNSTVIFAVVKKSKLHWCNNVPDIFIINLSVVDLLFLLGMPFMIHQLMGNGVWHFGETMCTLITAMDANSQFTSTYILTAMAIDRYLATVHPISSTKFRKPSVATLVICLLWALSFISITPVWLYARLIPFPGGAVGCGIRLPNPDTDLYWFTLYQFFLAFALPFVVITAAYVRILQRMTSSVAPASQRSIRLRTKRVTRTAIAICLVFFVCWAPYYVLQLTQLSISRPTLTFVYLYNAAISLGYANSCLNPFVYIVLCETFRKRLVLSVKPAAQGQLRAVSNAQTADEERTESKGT
Put plainly: Radioligand binding, human melanin-concentrating hormone MCH1 membranes, FlashPlate, [125I]-S36057. The following applies: compound at 10 μM; for A6 radioligand binding inhibition: human MCH1 membranes. In outline:
as §1

T2 sequence (P41146 whole entry): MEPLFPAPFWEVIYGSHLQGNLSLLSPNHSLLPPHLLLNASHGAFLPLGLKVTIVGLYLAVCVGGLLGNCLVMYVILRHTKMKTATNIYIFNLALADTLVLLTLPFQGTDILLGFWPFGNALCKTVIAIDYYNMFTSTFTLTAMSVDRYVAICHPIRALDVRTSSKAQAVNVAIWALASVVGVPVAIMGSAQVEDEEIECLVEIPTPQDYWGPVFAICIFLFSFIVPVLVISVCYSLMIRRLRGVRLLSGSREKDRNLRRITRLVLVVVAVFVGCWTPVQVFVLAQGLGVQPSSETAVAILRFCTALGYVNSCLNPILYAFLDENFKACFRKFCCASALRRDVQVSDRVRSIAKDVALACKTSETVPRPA
T6 sequence (P33032 whole entry): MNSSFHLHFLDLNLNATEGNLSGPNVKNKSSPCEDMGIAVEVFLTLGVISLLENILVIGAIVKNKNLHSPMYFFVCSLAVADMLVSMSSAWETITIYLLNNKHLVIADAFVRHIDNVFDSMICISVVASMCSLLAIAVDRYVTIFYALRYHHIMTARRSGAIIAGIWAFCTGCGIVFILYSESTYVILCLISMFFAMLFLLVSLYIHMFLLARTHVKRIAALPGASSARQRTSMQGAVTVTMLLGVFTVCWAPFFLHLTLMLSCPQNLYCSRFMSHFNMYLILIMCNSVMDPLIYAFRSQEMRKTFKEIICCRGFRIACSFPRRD

With `COC[C@H]1OC(OCc2ccccc2)[C@H](NC(=O)CCCN)[C@@H](OCc2ccc3ccccc3c2)[C@@H]1O` (some centres unmarked) [compound 26], the “A11 radioligand binding inhibition” value at Mouse urotensin (mUR2) is reported as “− (“−” indicates less than 50% inhibition at 10 μM)”. Moreover, the “A10 radioligand binding inhibition” value at Human opioid (ORL1) (human ORL1 membranes) is listed as “− (“−” indicates less than 50% inhibition at 10 μM)”. Moreover, the “A9 radioligand binding inhibition” value in assay [1] (human NPY-Y1 membranes) was “− (“−” indicates less than 50% inhibition at 10 μM)”. In addition, the “A4 radioligand binding inhibition” value on Human Melanocortin (MC4) is “− (“−” indicates less than 50% inhibition at 10 μM)”. The “A2 radioligand binding inhibition” value on Human κ-Opioid (KOP) is given as “− (“−” indicates less than 50% inhibition at 10 μM)”. Besides, at Human melanocortin (MC5), the “A5 radioligand binding inhibition” value is recorded as “− (“−” indicates less than 50% inhibition at 10 μM)”. Besides, on Human μ-opioid (MOP), the “A7 radioligand binding inhibition” value is given as “− (“−” indicates less than 50% inhibition at 10 μM)”. Further, the “A3 radioligand binding inhibition” value on Human Melanocortin (MC3) is on record as “− (“−” indicates less than 50% inhibition at 10 μM)”. Further, the “A8 radioligand binding inhibition” value on Human neurokinin (NK1) was “+ (“+” indicates greater than 50% inhibition at 10 μM)”. For the same molecule, the “A1 radioligand binding inhibition” value at Human δ-opioid (DOP) is “− (“−” indicates less than 50% inhibition at 10 μM)”. In assay [2], the “A6 radioligand binding inhibition” value is “− (“−” indicates less than 50% inhibition at 10 μM)”.

`COC[C@H]1OC(OCCc2ccccc2)[C@H](NC(=O)CCCN)[C@@H](OCc2ccc(-c3ccccc3)cc2)[C@@H]1O` (some centres unmarked) [compound 42]: the “A11 radioligand binding inhibition” value on Mouse urotensin (mUR2) is “− (“−” indicates less than 50% inhibition at 10 μM)”. Moreover, at Human opioid (ORL1) (human ORL1 membranes), the “A10 radioligand binding inhibition” value was “− (“−” indicates less than 50% inhibition at 10 μM)”. The “A9 radioligand binding inhibition” value in assay [1] (human NPY-Y1 membranes) was “− (“−” indicates less than 50% inhibition at 10 μM)”. On Human Melanocortin (MC4), the “A4 radioligand binding inhibition” value was “− (“−” indicates less than 50% inhibition at 10 μM)”. For the same molecule, the “A2 radioligand binding inhibition” value on Human κ-Opioid (KOP) is listed as “− (“−” indicates less than 50% inhibition at 10 μM)”. For the same molecule, the “A5 radioligand binding inhibition” value at Human melanocortin (MC5) was “+ (“+” indicates greater than 50% inhibition at 10 μM)”. The “A7 radioligand binding inhibition” value at Human μ-opioid (MOP) was “− (“−” indicates less than 50% inhibition at 10 μM)”. Also, the “A3 radioligand binding inhibition” value on Human Melanocortin (MC3) is given as “− (“−” indicates less than 50% inhibition at 10 μM)”. The “A8 radioligand binding inhibition” value at Human neurokinin (NK1) is reported as “− (“−” indicates less than 50% inhibition at 10 μM)”. Moreover, the “A1 radioligand binding inhibition” value at Human δ-opioid (DOP) was “− (“−” indicates less than 50% inhibition at 10 μM)”. The “A6 radioligand binding inhibition” value in assay [2] is given as “− (“−” indicates less than 50% inhibition at 10 μM)”.

Turning to `N=C(N)NCC(=O)NC1C(OCc2ccc(Cl)cc2)OC(COCc2ccc(Cl)cc2)C(O)C1OCc1ccc2ccccc2c1` (centres unmarked) [compound 422], the “A11: inhibition of radioligand binding” value at Mouse urotensin (mUR2) (mouse mUR2 membranes) is reported as “− (“−” indicates less than 50% inhibition at 10 μM)”. Besides, the “A10: inhibition of radioligand binding” value on Human opioid (ORL1) (human ORL1 membranes) is recorded as “+ (“+” indicates greater than 50% inhibition at 10 μM)”. In addition, the “A9: inhibition of radioligand binding” value in [1] (human NPY-Y1 membranes) was “− (“−” indicates less than 50% inhibition at 10 μM)”. Moreover, at Human Melanocortin (MC4) (human MC4 membranes), the “A4: inhibition of radioligand binding” value is given as “+ (“+” indicates greater than 50% inhibition at 10 μM)”. Further, the “A2: inhibition of radioligand binding” value at Human κ-Opioid (KOP) (human KOP membranes) is reported as “− (“−” indicates less than 50% inhibition at 10 μM)”. The “A5: inhibition of radioligand binding” value at Human melanocortin (MC5) (human MC5 membranes) is listed as “+ (“+” indicates greater than 50% inhibition at 10 μM)”. For the same molecule, the “A7: inhibition of radioligand binding” value at Human μ-opioid (MOP) (human MOP membranes) was “− (“−” indicates less than 50% inhibition at 10 μM)”. Besides, the “A3: inhibition of radioligand binding” value at Human Melanocortin (MC3) (human MC3 membranes) is recorded as “+ (“+” indicates greater than 50% inhibition at 10 μM)”. Moreover, the “A8: inhibition of radioligand binding” value at Human neurokinin (NK1) (human NK1 membranes) was “+ (“+” indicates greater than 50% inhibition at 10 μM)”. For the same molecule, on Human δ-opioid (DOP) (human DOP membranes), the “A1: inhibition of radioligand binding” value is listed as “− (“−” indicates less than 50% inhibition at 10 μM)”. The “A6: inhibition of radioligand binding” value in assay [2] ([125I]-S36057, human MCH1 membranes) was “+ (“+” indicates greater than 50% inhibition at 10 μM)”.

For the molecule `CSC1O[C@H](COCc2ccc3ccccc3c2)[C@@H](O)[C@@H](OCc2ccc(Cl)cc2)[C@H]1NC(=O)CN` (some centres unmarked) [compound 280], the “A11: inhibition of radioligand binding” value at Mouse urotensin (mUR2) (FlashPlate) is “− (“−” indicates less than 50% inhibition at 10 μM)”. In addition, the “A10: inhibition of radioligand binding” value on Human opioid (ORL1) (FlashPlate) is “− (“−” indicates less than 50% inhibition at 10 μM)”. In addition, the “A9: inhibition of radioligand binding” value in assay [1] (FlashPlate) is listed as “− (“−” indicates less than 50% inhibition at 10 μM)”. The “A4: inhibition of radioligand binding” value at Human Melanocortin (MC4) (FlashPlate) is “− (“−” indicates less than 50% inhibition at 10 μM)”. Further, the “A2: inhibition of radioligand binding” value at Human κ-Opioid (KOP) (filtration) is “− (“−” indicates less than 50% inhibition at 10 μM)”. In addition, the “A5: inhibition of radioligand binding” value at Human melanocortin (MC5) (FlashPlate) is on record as “− (“−” indicates less than 50% inhibition at 10 μM)”. For the same molecule, the “A7: inhibition of radioligand binding” value at Human μ-opioid (MOP) (FlashPlate) is on record as “− (“−” indicates less than 50% inhibition at 10 μM)”. Further, on Human Melanocortin (MC3) (FlashPlate), the “A3: inhibition of radioligand binding” value was “− (“−” indicates less than 50% inhibition at 10 μM)”. Further, the “A8: inhibition of radioligand binding” value at Human neurokinin (NK1) (filtration) is given as “+ (“+” indicates greater than 50% inhibition at 10 μM)”. Moreover, at Human δ-opioid (DOP) (FlashPlate), the “A1: inhibition of radioligand binding” value is listed as “− (“−” indicates less than 50% inhibition at 10 μM)”. Besides, the “A6: inhibition of radioligand binding” value in assay [2] ([125I]-S36057, FlashPlate) is listed as “− (“−” indicates less than 50% inhibition at 10 μM)”.
